Measured values reported in patent US20220195487A1, “Method for Measuring Inhibition of Bacteria by Antibacterial Drug, and Bacterial Counting Device and Method Thereof” (BEIJING XINJI JINNUO MEDICAL EQUIPMENT CO.,LTD., priority 2019, published 2022).
Converted amounts (≈) assume the structure as drawn.

Legend:
Assay type in all cases: cell-based
[1] = test system: Escherichia coli ATCC 25922; experiment: rapid susceptibility test by resistance counting method (Coulter principle)
Description: A method for measuring inhibition of Escherichia coli ATCC 25922 by ampicillin (by the resistance counting method).
The standard strain ATCC 25922 Escherichia coli was transferred for use later and incubated at 37° C. for 18 hours.
Ten of the drug susceptibility testing tubes (or cups) contained the required antibiotics of concentrations via doubling dilution (refer to American CLSI standards for concentrations for different drugs); the eleventh tube without antibiotics is used as a positive control (PC); the twelfth tube without bacterial suspension is used as a negative control (NC).
Prepare the bacterial strain and triturate on the wall of a vial with Mueller Hinton broth (MH for antibiotics susceptibility testing) to mix evenly, close the cap and measure the turbidity with a nephelometer (BD PhoenixSpec Nephelometer), the turbidity being 0.5 McFarland units, and set aside to be used later.
Inoculate the bacteria to be tested at an inoculum concentration specified in the CLSI (American Clinical and Laboratory Standards Institute) method for broth dilution drug susceptibility testing, and incubate in an incubator at 37° C.
Preparation of bacterial suspension: pick a spare colony to prepare bacterial suspension, the concentration of the bacterial suspension being 0.5 McFarland units. Add the colony suspension to (MH) broths containing different concentrations of various antibiotics and the content of bacteria in each tube after inoculation is 1×10∧4 cfu/mL to 5×10∧7 cfu/mL, optimally 5×10∧6 cfu/mL (colony forming units/mL), i.e. optimally 5×10∧6 colony forming units per mL.
Incubate in an incubator at 37° C., perform bacterial counting at 0 min, 10 min, 30 min, 60 min, 90 min and 120 min respectively by the resistance counting method (OMEC (Zhuhai) RC-3000 resistance (Coulter) particle counter). Measure twice, take the average value and record the data.
There were 12 tubes for testing, the eleventh tube being the positive control (PC), the twelfth tube being the negative control (NC) and the other 10 tubes being the test tubes. At each detection time point, measurements were carried out for all 12 tubes.

[2] = test system: Escherichia coli ATCC 25922; experiment: broth dilution drug susceptibility testing method (CLSI); details: ATCC25922, read-out: minimum inhibitory concentration
Description: (§1) In addition, the bacteria in this example were also subjected to three other methods of drug susceptibility testing, namely, measuring the inhibition of Escherichia coli ATCC 25922 in this example by ampicillin according to the operating manual of the VITEK microbial identification susceptibility system from Merieux, France, with a minimum inhibitory concentration of 4 μg/mL (micrograms per milliliter); measuring the inhibition of Escherichia coli ATCC 25922 in this example by ampicillin according to the Etest method, as detailed in the operating manual of the Etest kit from Thermo Fisher, USA, with a minimum inhibitory concentration of 2 μg/mL; and measuring the inhibition of Escherichia coli ATCC 25922 in this example by ampicillin according to broth dilution drug susceptibility testing method as specified in the broth dilution susceptibility standards by the American Clinical and Laboratory Standards Institute, with a minimum inhibitory concentration of 4 μg/mL. It can be seen that their results are all consistent and sensitive.

[3] = test system: Escherichia coli ATCC 25922; experiment: VITEK microbial identification susceptibility system; details: ATCC25922, read-out: minimum inhibitory concentration
Description: as §1

[4] = test system: Escherichia coli ATCC 25922; experiment: Etest method; details: ATCC25922, read-out: minimum inhibitory concentration
Description: as §1

[5] = test system: Enterococcus faecalis (ATCC29212); experiment: 24 h routine (conventional) drug susceptibility testing by visual observation
[6] = test system: Enterococcus faecalis (ATCC29212); experiment: 2 h susceptibility by resistance bacterial counter; details: Example 3, resistance counting, 2 h at 37° C., 60% of the positive count value as threshold
Description: (§2) 2.2.1 Preparation of bacterial strains: In accordance with the requirements of the CLSI standards, pick each fresh strains within 24 h with a turbidity of 0.5 McFarland units in the column of strain name in Table 5;
(§3) 2.2.2 Inoculation: Take 100 μL of each bacterial suspension with a turbidity of 0.5 McFarland units and dispense to a 48-well plate with pre-configured gradient antibiotics, 500 μL dispensed in each well;
(§4) 2.2.3 Incubation and detection: Incubate for 2 h at 37° C., and measure with a resistance bacterial counter. Adjust the instrument to its best sensitivity and then count bacteria. Record the 24 h routine susceptibility results for comparative analysis.

[7] = test system: Enterococcus faecalis (ATCC29212); experiment: rapid drug susceptibility testing of living cells (live bacteria counting, 2 h); details: for Living cell counts: 2 h
Description: (§5) 1.2.1 Preparation of bacterial strains: in accordance with the requirements of the CLSI standards, pick each fresh strains within 24 h with a turbidity of 0.5 McFarland units in the column of strain name in Table 7.
(§6) 1.2.2 Inoculation: take 100 μL of each bacterial suspension with a turbidity of 0.5 McFarland units and dispense to a 48-well plate with pre-configured gradient antibiotics, 500 μL dispensed in each well.
(§7) 1.2.3 Incubation and detection: incubate for 2 h at 37° C., and perform live bacteria counting. Record the 24 h routine susceptibility results for comparative analysis.

[8] = test system: Klebsiella pneumoniae; experiment: 24 h routine (conventional) drug susceptibility testing by visual observation
[9] = test system: Klebsiella pneumoniae; experiment: 2 h susceptibility by resistance bacterial counter; details: Example 3, resistance counting, 2 h at 37° C., 60% of the positive count value as threshold
Description: as §2, §3, §4

[10] = test system: Klebsiella pneumoniae; experiment: rapid drug susceptibility testing of living cells (live bacteria counting, 2 h); details: for Living cell counts: 2 h
Description: as §5, §6, §7

[11] = test system: Pseudomonas aeruginosa (ATCC27853); experiment: 24 h routine (conventional) drug susceptibility testing by visual observation
[12] = test system: Pseudomonas aeruginosa (ATCC27853); experiment: 2 h susceptibility by resistance bacterial counter; details: Example 3, resistance counting, 2 h at 37° C., 60% of the positive count value as threshold
Description: as §2, §3, §4

[13] = test system: Pseudomonas aeruginosa (ATCC27853); experiment: rapid drug susceptibility testing of living cells (live bacteria counting, 2 h); details: for Living cell counts: 2 h
Description: as §5, §6, §7

[14] = test system: Acinetobacter baumannii; experiment: 2 h susceptibility by resistance bacterial counter; details: Example 3, resistance counting, 2 h at 37° C., 60% of the positive count value as threshold
Description: as §2, §3, §4

[15] = test system: Acinetobacter baumannii; experiment: 24 h routine (conventional) drug susceptibility testing by visual observation
[16] = test system: Acinetobacter baumannii; experiment: rapid drug susceptibility testing of living cells (live bacteria counting, 2 h); details: for Living cell counts: 2 h
Description: as §5, §6, §7

[17] = Example 3, 24 h routine susceptibility
[18] = Example 4, 24 h routine susceptibility
[19] = Example 4, live bacteria counting, 2 h at 37° C.

CC1(C)S[C@@H]2[C@H](NC(=O)[C@H](N)c3ccccc3)C(=O)N2[C@H]1C(=O)O [ampicillin]
bacterial counts ([1]; 0 min, 0.5 μg/mL): 210 cells/μL
bacterial counts ([1]; 0 min, 1 μg/mL): 230 cells/μL
bacterial counts ([1]; 0 min, 2 μg/mL): 208 cells/μL
bacterial counts ([1]; 0 min, 4 μg/mL): 206 cells/μL
bacterial counts ([1]; 0 min, 8 μg/mL): 204 cells/μL
bacterial counts ([1]; 0 min, 16 μg/mL): 208 cells/μL
bacterial counts ([1]; 0 min, 32 μg/mL): 210 cells/μL
bacterial counts ([1]; 0 min, 64 μg/mL): 220 cells/μL
bacterial counts ([1]; 0 min, 128 μg/mL): 212 cells/μL
bacterial counts ([1]; 0 min, 256 μg/mL): 207 cells/μL
bacterial counts ([1]; 60 min, 0.5 μg/mL): 807 cells/μL
bacterial counts ([1]; 60 min, 1 μg/mL): 789 cells/μL
bacterial counts ([1]; 60 min, 2 μg/mL): 811 cells/μL
bacterial counts ([1]; 60 min, 4 μg/mL): 304 cells/μL
bacterial counts ([1]; 60 min, 8 μg/mL): 250 cells/μL
bacterial counts ([1]; 60 min, 16 μg/mL): 264 cells/μL
bacterial counts ([1]; 60 min, 32 μg/mL): 290 cells/μL
bacterial counts ([1]; 60 min, 64 μg/mL): 278 cells/μL
bacterial counts ([1]; 60 min, 128 μg/mL): 214 cells/μL
bacterial counts ([1]; 60 min, 256 μg/mL): 350 cells/μL
bacterial counts ([1]; 90 min, 0.5 μg/mL): 1540 cells/μL
bacterial counts ([1]; 90 min, 1 μg/mL): 1469 cells/μL
bacterial counts ([1]; 90 min, 2 μg/mL): 1511 cells/μL
bacterial counts ([1]; 90 min, 4 μg/mL): 432 cells/μL
bacterial counts ([1]; 90 min, 8 μg/mL): 502 cells/μL
bacterial counts ([1]; 90 min, 16 μg/mL): 500 cells/μL
bacterial counts ([1]; 90 min, 32 μg/mL): 491 cells/μL
bacterial counts ([1]; 90 min, 64 μg/mL): 489 cells/μL
bacterial counts ([1]; 90 min, 128 μg/mL): 367 cells/μL
bacterial counts ([1]; 90 min, 256 μg/mL): 460 cells/μL
bacterial counts ([1]; 120 min, 0.5 μg/mL): 2534 cells/μL
bacterial counts ([1]; 120 min, 1 μg/mL): 2456 cells/μL
bacterial counts ([1]; 120 min, 2 μg/mL): 2463 cells/μL
bacterial counts ([1]; 120 min, 4 μg/mL): 590 cells/μL
bacterial counts ([1]; 120 min, 8 μg/mL): 524 cells/μL
bacterial counts ([1]; 120 min, 16 μg/mL): 560 cells/μL
bacterial counts ([1]; 120 min, 32 μg/mL): 578 cells/μL
bacterial counts ([1]; 120 min, 64 μg/mL): 641 cells/μL
bacterial counts ([1]; 120 min, 128 μg/mL): 498 cells/μL
bacterial counts ([1]; 120 min, 256 μg/mL): 512 cells/μL
MIC ([1]; ATCC25922, resistance method, Escherichia coli ATCC 25922, read-out: minimum inhibitory concentration (MIC)): 4 µg/mL (≈ 11.4 µM)
MIC [2]: 4 µg/mL (≈ 11.4 µM)
MIC [3]: 4 µg/mL (≈ 11.4 µM)
MIC [4]: 2 µg/mL (≈ 5.72 µM)

Penicillin
24 hMIC [5, 17]: 2
MIC, conventional drug susceptibility testing [5, 18]: 2 µg/mL
2 hMIC [6]: 1
Living cell counts ([7]; 0.03 μg/mL): 13789 cells/μL
Living cell counts ([7]; 0.06 μg/mL): 13679 cells/μL
Living cell counts ([7]; 0.12 μg/mL): 12958 cells/μL
Living cell counts ([7]; 0.25 μg/mL): 12088 cells/μL
Living cell counts ([7]; 0.5 μg/mL): 11105 cells/μL
Living cell counts ([7]; 1 μg/mL): 3085 cells/μL
Living cell counts ([7]; 2 μg/mL): 1076 cells/μL
Living cell counts ([7]; 4 μg/mL): 798 cells/μL
Living cell counts ([7]; 8 μg/mL): 683 cells/μL
Living cell counts ([7]; 16 μg/mL): 659 cells/μL
MIC, rapid drug susceptibility testing of living cells [7, 19]: 1 µg/mL

Gentamicin
24 hMIC [8, 17]: 8
MIC, conventional drug susceptibility testing [8, 18]: 8 µg/mL
2 hMIC [9]: 4
Living cell counts ([10]; 0.03 μg/mL): 11879 cells/μL
Living cell counts ([10]; 0.06 μg/mL): 11426 cells/μL
Living cell counts ([10]; 0.12 μg/mL): 10167 cells/μL
Living cell counts ([10]; 0.25 μg/mL): 10278 cells/μL
Living cell counts ([10]; 0.5 μg/mL): 10971 cells/μL
Living cell counts ([10]; 1 μg/mL): 10654 cells/μL
Living cell counts ([10]; 2 μg/mL): 10549 cells/μL
Living cell counts ([10]; 4 μg/mL): 10876 cells/μL
Living cell counts ([10]; 8 μg/mL): 1876 cells/μL
Living cell counts ([10]; 16 μg/mL): 880 cells/μL
MIC, rapid drug susceptibility testing of living cells [10, 19]: 8 µg/mL

CC(C)(O/N=C(\C(=O)N[C@@H]1C(=O)N2C(C(=O)[O-])=C(C[n+]3ccccc3)CS[C@H]12)c1csc(N)n1)C(=O)O [Ceftazidime]
24 hMIC [11, 17]: 2
MIC, conventional drug susceptibility testing [11, 18]: 2 µg/mL (≈ 3.66 µM)
2 hMIC [12]: 4
Living cell counts ([13]; 0.03 μg/mL): 1509 cells/μL
Living cell counts ([13]; 0.06 μg/mL): 1478 cells/μL
Living cell counts ([13]; 0.12 μg/mL): 1513 cells/μL
Living cell counts ([13]; 0.25 μg/mL): 1480 cells/μL
Living cell counts ([13]; 0.5 μg/mL): 1235 cells/μL
Living cell counts ([13]; 1 μg/mL): 1090 cells/μL
Living cell counts ([13]; 2 μg/mL): 308 cells/μL
Living cell counts ([13]; 4 μg/mL): 297 cells/μL
Living cell counts ([13]; 8 μg/mL): 202 cells/μL
Living cell counts ([13]; 16 μg/mL): 209 cells/μL
MIC, rapid drug susceptibility testing of living cells [13, 19]: 2 µg/mL

C[C@@H](O)[C@H]1C(=O)N2C(C(=O)O)=C(S[C@@H]3CN[C@H](C(=O)N(C)C)C3)[C@H](C)[C@H]12 [Meropenem]
2 hMIC [14]: 0.12
24 hMIC [15, 17]: 0.12
MIC, conventional drug susceptibility testing [15, 18]: 0.12 µg/mL (≈ 0.313 µM)
Living cell counts ([16]; 0.03 μg/mL): 7959 cells/μL
Living cell counts ([16]; 0.06 μg/mL): 6495 cells/μL
Living cell counts ([16]; 0.12 μg/mL): 1574 cells/μL
Living cell counts ([16]; 0.25 μg/mL): 1570 cells/μL
Living cell counts ([16]; 0.5 μg/mL): 1514 cells/μL
Living cell counts ([16]; 1 μg/mL): 1490 cells/μL
Living cell counts ([16]; 2 μg/mL): 1479 cells/μL
Living cell counts ([16]; 4 μg/mL): 1561 cells/μL
Living cell counts ([16]; 8 μg/mL): 1003 cells/μL
Living cell counts ([16]; 16 μg/mL): 979 cells/μL
MIC, rapid drug susceptibility testing of living cells [16, 19]: 0.12 µg/mL
